# Test results as given in article PMC3986399, “Discovery of Novel Allosteric Effectors Based on the Predicted Allosteric Sites for Escherichia coli D-3-Phosphoglycerate Dehydrogenase” (PLoS ONE, 2014).
# Entries after “also recorded” stand apart in the source; their conditions may differ. Read-outs that look alike come from different tables or passages of the source.
# Key:
# [1] = molecular target: T1, PGDH mutant F147A (Escherichia coli, UniProt P0A9T0, F147A); assay: PGDH enzyme assay, mutant F147A; type: biochemical
# T1 construct: The PGDH coding region was ligated into the pET21a(+) vector; made in house; host or cells: E. coli BL21 (DE3)
# Experimental: (§1) To evaluate the effects of compounds on PGDH activity, compounds were first examined to have no fluorescence absorption at 456 nm, and then pre-incubated with enzyme samples in the assay buffer (20 mM tris-(hydroxymethyl) aminomethane hydrochloride (Tris-HCl), pH 7.5, 1 mM DTT, 1 mM EDTA, and 0.25 mM NADH) for 6 min at 25°C. […] Fluorescence signals were recorded for 3 min with a kinetics mode program. The cofactor concentration in the assay buffer was 0.25 mM and the substrate concentration was 5 mM [28]. IC50 or AC50 values were obtained by fitting the data to a three-parameter Hill model of the graph of log dose against percentage inhibition or activation from at least three sets of experiments. Percentages of inhibition or activation were calculated according to the following equation: [drawing 1] in which Vo and Vi represent the maximum reaction rate of the enzyme incubated without or with compounds and Vn represents the maximum degradation rate of NADH.
# (§2) All mutagenesis experiments were carried out according to the instructions of the QuikChange site-directed mutagenesis (Stratagene). The plasmid pET-21a(+)-containing wild-type (WT) PGDH was mutated to obtain the mutants E129A, S146A, F147A, K256A, K152AK230A, and E129AK256A. The DNA sequences of all mutants were verified by DNA sequencing. […]
# [2] = molecular target: T2, PGDH (Escherichia coli, UniProt P0A9T0); assay: Compound-substrate competition experiments; type: biochemical; conditions: for competition with the substrate: constant compound concentration, increasing α-ketoglutarate; for inhibition at 50 µM: substrate increased from 156 µM to 10 mM, compound 50 µM, read-out: percentage of inhibition with increasing substrate
# T2 construct: The PGDH coding region was ligated into the pET21a(+) vector; made in house; host or cells: E. coli BL21 (DE3)
# Experimental: To investigate competition effects between the compounds and the substrate α-ketoglutarate, we performed compound-substrate competition experiments as follows:
# Before α-ketoglutarate was added to start the reaction, the enzyme sample was pre-incubated with the cofactor and the compound for 6 min at 25°C. […] The cofactor NADH concentration was kept constant at 0.25 mM. […]
# Serine-compound competition experiment […]
# Competition experiments for analogs and the substrate
# 1-3 were kept at 92, 100, and 120 μM, while gradually increasing the substrate
# concentration from 78 μM to 625 μM. […]
# [3] = molecular target: T3, PGDH mutant K256A (Escherichia coli, UniProt P0A9T0, K256A); assay: PGDH enzyme assay, mutant K256A; type: biochemical
# T3 construct: The PGDH coding region was ligated into the pET21a(+) vector; made in house; host or cells: E. coli BL21 (DE3)
# Experimental: as §1, §2
# [4] = molecular target: T4, E. coli PGDH (wild type) (Escherichia coli, UniProt P0A9T0); assay: PGDH enzyme assay (NADH fluorescence, α-ketoglutarate substrate), wild type; type: biochemical; conditions: for inhibition at 50 µM: compound 50 µM; for maximum enzyme activity (residual activity, activation): low compound concentration, >100% = activation
# T4 construct: The PGDH coding region was ligated into the pET21a(+) vector; made in house; host or cells: E. coli BL21 (DE3)
# Experimental: as §1
# [5] = molecular target: T5, PGDH (WT) (Escherichia coli, UniProt P0A9T0); assay: SPR direct binding to immobilized PGDH
# T5 construct: The PGDH coding region was ligated into the pET21a(+) vector; made in house; host or cells: E. coli BL21 (DE3)
# Experimental: (§3) PGDH and its mutants were immobilized on a CM5 sensor chip by using standard amine-coupling at 25°C with running buffer HBS-P (20 mM […], 0.05% surfactant P-20, pH 7.4), respectively. […] A reference flow cell was activated and blocked in the absence of PGDH. […] Regeneration was achieved by extended washing with the running buffer after each sample injection. […] In the binding site verification SPR experiments, the sensor chip surface was immobilized with WT PGDH and its mutants to a RU of 4000, respectively. The analytes, compounds 1 and 2, were injected over the chip at a fixed concentration of 50 and 25 µM, respectively.
# [6] = molecular target: T2, PGDH; assay: Enzyme kinetic analysis (Michaelis-Menten); type: biochemical; conditions: compound 0 to 120 µM
# Experimental: As in the competition experiments, enzyme reaction velocity vs. substrate relationships were measured at various compound concentrations. The compound concentrations used were 120, 80, 40, 24, 8, 4.8, 1.6, and 0.32 µM.
# To evaluate the effects of the compounds on enzyme kinetics, Michaelis-Menten plots of PGDH incubated with different concentrations of compounds were measured. The apparent kinetic parameters kcat and Km were estimated by non-linear curve-fitting using Graphpad Prism 5.0 software, and their values are shown in Figure 6. […] The kcat of the pure enzyme was about 2.6 s^−1, which was in between the kcat values of the enzyme at the molecular concentrations of 8 µM and 24 µM.
# [7] = molecular target: T2, PGDH; assay: Serine-compound competition experiment; type: biochemical; conditions: compound 40 µM; serine 1.6 to 200 µM
# Experimental: Serine-compound competition experiment
# Serine-compound competition experiments were did like that for compound-substrate experiments, before the reaction was started, the enzyme was pre-incubated with the mixture of serine and compound for 6 minutes. During this process, compound was kept at a constant inhibitory concentration, and the serine concentrations were changed from 1.6 to 200
# μM. The concentrations of compounds 1 and 2 were selected as 40 μM. […]
# [8] = molecular target: T6, PGDH mutant Y410A (Escherichia coli, UniProt P0A9T0, Y410A); assay: SPR binding site verification, site II mutant Y410A; conditions: compound 1 at 50 µM, compound 2 at 25 µM
# T6 construct: The PGDH coding region was ligated into the pET21a(+) vector; made in house
# Experimental: as §3
# (§4) We also tested whether compounds 1 and 2 might interact with the other allosteric site (site II) we discovered before. The key binding residue in site II, Y410 was mutated to A. The binding of these two compounds with the wild type enzyme, Y410A, and two site I mutants (F147A, E129AK256A) were tested using SPR direct binding assay. The immobilization levels for WT, Y410A, F147A and E129AK256A were kept almost the same (3506, 3792, 3756 and 3600 RU, respectively) and the concentrations of compounds 1 and 2 were kept at 50 µM and 25 µM. […] This verified that both compounds 1 and 2 bind specifically to the site I as designed.
# [9] = molecular target: T7, PGDH mutant E129A (Escherichia coli, UniProt P0A9T0, E129A); assay: PGDH enzyme assay, mutant E129A; type: biochemical
# T7 construct: The PGDH coding region was ligated into the pET21a(+) vector; made in house; host or cells: E. coli BL21 (DE3)
# Experimental: as §1, §2
# [10] = molecular target: T1, PGDH mutant F147A; assay: SPR binding site verification, site I mutant F147A; conditions: compound 1 at 50 µM, compound 2 at 25 µM
# Experimental: as §3, §4
# [11] = molecular target: T8, PGDH mutant E129AK256A (Escherichia coli, UniProt P0A9T0, E129A/K256A); assay: PGDH enzyme assay, mutant E129AK256A; type: biochemical
# T8 construct: The PGDH coding region was ligated into the pET21a(+) vector; made in house; host or cells: E. coli BL21 (DE3)
# Experimental: as §1, §2
# [12] = molecular target: T8, PGDH mutant E129AK256A; assay: SPR binding site verification, site I mutant E129AK256A; conditions: compound 1 at 50 µM, compound 2 at 25 µM
# Experimental: as §3, §4
# [13] = system: PGDH from pea; conditions: PGDH from peas, cited from earlier work
# [14] = molecular target: T9, PGDH mutant K152AK230A (Escherichia coli, UniProt P0A9T0, K152A/K230A); assay: PGDH enzyme assay, mutant K152AK230A; type: biochemical
# T9 construct: The PGDH coding region was ligated into the pET21a(+) vector; made in house; host or cells: E. coli BL21 (DE3)
# Experimental: as §1, §2
# [15] = molecular target: T10, PGDH mutant S146A (Escherichia coli, UniProt P0A9T0, S146A); assay: PGDH enzyme assay, mutant S146A; type: biochemical
# T10 construct: The PGDH coding region was ligated into the pET21a(+) vector; made in house; host or cells: E. coli BL21 (DE3)
# Experimental: as §1, §2
# [16] = wild type PGDH, substrate 5 mM, NADH 0.25 mM, read-out: IC50
structure (smiles),measurement,setting,value
Cc1ccc(N2NC(=O)/C(=C/c3ccc(-c4ccc(S(=O)(=O)Nc5nccs5)cc4)o3)C2=O)cc1C [Compound 2],IC50,[1],158 ± 22 µM
same,competition with the substrate,[2],do not competitively bind to the same site
same,inhibition at 50 µM,[2],20 to 50%
same,IC50,[3],> 200 µM
same,inhibition at 50 µM,[4]; substrate 5 mM,~50%
same,AC50,"[4]; fit of activation dose response curve, substrate 5 mM",0.0347 µM
same,"maximum enzyme activity (residual activity, activation)",[4]; substrate 5 mM,163%
same,concentration above which the compound is an inhibitor,[4]; substrate 5 mM,above 1.6 µM
same,concentration at which activation starts,[4]; substrate 5 mM,about 2 nM
same,concentration of highest activation,[4]; substrate 5 mM,about 64 nM
same,IC50,[4]; [16],58 ± 9 µM
same,Kd,"[5]; SPR, 1:1 Langmuir binding model, PGDH 800 RU, read-out: KD",19 ± 1.9 µM
same,effect on Km / substrate affinity of the enzyme,[6],enhanced the substrate affinity for the enzyme
same,influence on the inhibitory ability of serine,[7],no significant effect; also recorded: not significantly influenced
same,compound binding ability to Y410A versus WT,[8],retained the same extent of compound binding ability as WT
same,IC50,[9],99 ± 13 µM
same,compound binding ability to F147A versus WT,[10],a large decrease in compound binding ability
same,IC50,[11],> 200 µM
same,compound binding ability to E129AK256A versus WT,[12],a large decrease in compound binding ability
CSCC[C@H](N)C(=O)O [L-methionine],increase in enzyme activity,[13]; at maximal activation,four- to five
same,concentration of maximal activation,[13],10 mM
O=C1NC(=S)NC(=O)C1=Cc1ccc(OC(=O)c2ccc3nc(-c4ccccc4)c(-c4ccccc4)nc3c2)cc1 [Compound 1],IC50,[1],181 ± 26 µM
same,competition with the substrate,[2],do not competitively bind to the same site
same,inhibition at 50 µM,[2],20 to 50%
same,IC50,[4],34.8 ± 1.3 µM
same,inhibition at 50 µM,[4]; substrate 5 mM,~50%
same,"maximum enzyme activity (residual activity, activation)",[4]; substrate 5 mM,about 140%
same,concentration above which the compound is an inhibitor,[4]; substrate 5 mM,> 16 µM
same,Kd,[5],42.6 ± 2.1 µM
same,effect on Km / substrate affinity of the enzyme,[6],enhanced the substrate affinity for the enzyme
same,influence on the inhibitory ability of serine,[7],no significant effect; also recorded: not significantly influenced
same,compound binding ability to Y410A versus WT,[8],retained the same extent of compound binding ability as WT
same,compound binding ability to F147A versus WT,[10],a large decrease in compound binding ability
same,IC50,[14],> 200 µM
same,compound binding ability to E129AK256A versus WT,[12],a large decrease in compound binding ability
same,IC50,[15],175 ± 88 µM
Cc1ccccc1C(=O)Nc1ccccc1C(=O)N/N=C/c1ccccc1OCc1ccccc1[N+](=O)[O-] [Compound 3],competition with the substrate,[2],percentage inhibition did not change
same,inhibition at 130 µM,"[4]; compound 130 µM, substrate 5 mM",~50%
same,maximal inhibition rate,[4]; partial dose-inhibition curve due to solubility restriction,61.9%
same,IC50,[4]; [16],131 ± 12 µM
same,SPR binding ability,[5]; no reliable KD obtained,weak binding ability
